The values below come from PMC12389735, “Polyoxypregnane Aryl Esters Prepared from Metaplexis japonica (Thunb.) Makino and Their Role in Reversing Multidrug Resistance in HepG2/Dox Cells” (Pharmaceuticals, 2025).

In series [1] the test system is caspase 9. Put plainly: Western blotting of caspase 9 expression in HepG2/Dox cells. The class given is cell-based, Human. As for the experimental part:
(§1) In 100 mm culture dishes, 1 × 10^6 cells in 10 mL medium were seeded and incubated for 24 h, and then incubated with the test sample in 10 mL fresh medium for another 24 h. Total proteins were extracted using RIPA cell lysis buffer containing PMSF while protein content was determined using the BCA kit. An equal amount of the protein sample was subjected to SDS-PAGE for separation and transferred to PVDF membranes. The membranes were blocked in 5% defat milk at RT for 1 h, and then incubated with the primary antibody of the protein of interest (P-gp, caspase 8 or caspase 9) or GAPDH (internal standard) at 4 °C overnight, and then with the secondary antibody at RT for 1 h. Protein bands were detected under the chemiluminescence scanner, while Image J was employed to analyze the gray value of the protein bands.

Series [2] concerns HepG2/Dox cells. Put plainly: CCK-8 cell viability / reversal of P-gp-mediated MDR in HepG2/Dox cells. The class given is cell-based, Human. The note with it: for Cytotoxicity to HepG2/Dox cells (viability): compound alone at 5 or 10 μM; for Cytotoxicity to HepG2/Dox cells (viability) / IC50: 48 h; for Reversal of resistance of HepG2/Dox cells to paclitaxel and vinblastine: non-cytotoxic concentrations (10 μM); for IC50: Homo sapiens, HepG2/Dox, anticancer drug alone, CCK-8, read-out: IC50 ± SD HepG2/Dox; for Fsen (fold increase in sensitivity): drug alone (reference); for Fres (fold of resistance): drug alone, IC50 in HepG2/Dox / IC50 in HepG2.

For series [3], the target named is T1, Human ABCB1 (Homo sapiens, UniProt P08183).
T1 construct: Flag; purchased MedChemExpress HY-P703175; host or cells: HEK293
Put plainly: Surface plasmon resonance binding to full-length ABCB1 (Biacore). The following applies: SPR; for Kd: CM5 chip, read-out: KD (equilibrium dissociation constant). As for the experimental part:
The human recombinant ABCB1 full-length protein (HEK293, Flag) (MedChemExpress, Monmouth Junction, NJ, USA; #HY-P703175) was coupled onto a CM5 sensor chip (Cytiva, Marlborough, MA, USA; #BR-1005-30) via carboxyl groups on the dextran. After incubation, a series of concentrations of compound 1 or 1a flowed through the protein–CM5 system. Binding was tested and analyzed using a Biacore K8 instrument (GE Healthcare, Chicago, IL, USA) and Biacore Insight evaluation software (https://www.cytivalifesciences.com/en/us, accessed on 5 August 2025) (Cytiva, Marlborough, MA, USA).

Series [4] concerns the target T2, P-gp (Homo sapiens, UniProt P08183).
T2 construct: Doxorubicin-induced P-gp overexpression HepG2/Dox subline was a gift from Prof; Fong; endogenous in cells; host or cells: HepG2/Dox (doxorubicin-induced P-gp-overexpressing subline of HepG2)
In words: Rhodamine 123 efflux assay for P-gp function in HepG2/Dox cells. It is filed as cell-based. The note with it: 10 μM, 5 μM Rh-123, 40 min; vs Rh-123 alone. As for the experimental part:
After removal of the medium via centrifugation, the cells were washed with ice-cold PBS twice, resuspended in 300 μL ice-cold PBS, and transferred into flow cytometer tubes. Cellular fluorescence intensity was analyzed immediately using flow cytometry.

Series [5] relates to HepG2/Dox cells. In words: Annexin V/PI apoptosis by flow cytometry in HepG2/Dox cells. It is filed as cell-based, Human. The following applies: 24 h; for Apoptosis rates of HepG2/Dox cells: 10 μM in combination with 500 nM paclitaxel, vs PTX alone. As for the experimental part:
Cells were then incubated for another 24 h in 2 mL fresh medium containing the test samples. The medium and cells (digested by EDTA-free trypsin) were collected and centrifuged (1000 rpm, 5 min). The cells were then suspended in PBS and stained using the Annexin V/PI kit by following the procedures provided with the kit, and the apoptosis rate of cells with different treatments was analyzed using flow cytometry.

Series [6] deals with caspase 8. Put plainly: Western blotting of caspase 8 expression in HepG2/Dox cells. It is filed as cell-based, Human. As for the experimental part: as §1
The nature of series [7]: Bidirectional transport assay on Caco-2 cell monolayers. The following applies: human; for Papp B→A at 2 h: Caco-2, pH 7.4; for Papp A→B at 2 h, 2 μM: Caco-2, pH 7.4, Apparent permeability coefficient (Papp) from AP to BL; for Papp A→B at 2 h: Caco-2, pH 7.4, A→B Transport Papp, pH 7.40; for Papp A→B at 2 h / recovery at 2 h: compound 1, 1a 2 μM, digoxin 10 μM.
The subject of series [8] is Caco-2 cell monolayers. The series is described as above. The note with it: from ER values of less than 2.
In series [9] the test system is P-gp. Put plainly: Western blotting of P-gp expression in HepG2/Dox cells. The class given is cell-based, Human. The note with it: alone or in combination with paclitaxel. As for the experimental part:
as §1

Where [10] appears, read: 10 μM combined with paclitaxel 0.5 μM.
Setting [11] is: alone: paclitaxel 0.5 μM, compound 1 or 1a 10 μM.
The mark [12] stands for this setting: Caco-2, pH 7.4, A→B Transport Solution Recovery %.
The mark [13] stands for this setting: Caco-2, pH 7.4, B→A Transport Solution Recovery %.

T1 sequence (P08183 whole entry): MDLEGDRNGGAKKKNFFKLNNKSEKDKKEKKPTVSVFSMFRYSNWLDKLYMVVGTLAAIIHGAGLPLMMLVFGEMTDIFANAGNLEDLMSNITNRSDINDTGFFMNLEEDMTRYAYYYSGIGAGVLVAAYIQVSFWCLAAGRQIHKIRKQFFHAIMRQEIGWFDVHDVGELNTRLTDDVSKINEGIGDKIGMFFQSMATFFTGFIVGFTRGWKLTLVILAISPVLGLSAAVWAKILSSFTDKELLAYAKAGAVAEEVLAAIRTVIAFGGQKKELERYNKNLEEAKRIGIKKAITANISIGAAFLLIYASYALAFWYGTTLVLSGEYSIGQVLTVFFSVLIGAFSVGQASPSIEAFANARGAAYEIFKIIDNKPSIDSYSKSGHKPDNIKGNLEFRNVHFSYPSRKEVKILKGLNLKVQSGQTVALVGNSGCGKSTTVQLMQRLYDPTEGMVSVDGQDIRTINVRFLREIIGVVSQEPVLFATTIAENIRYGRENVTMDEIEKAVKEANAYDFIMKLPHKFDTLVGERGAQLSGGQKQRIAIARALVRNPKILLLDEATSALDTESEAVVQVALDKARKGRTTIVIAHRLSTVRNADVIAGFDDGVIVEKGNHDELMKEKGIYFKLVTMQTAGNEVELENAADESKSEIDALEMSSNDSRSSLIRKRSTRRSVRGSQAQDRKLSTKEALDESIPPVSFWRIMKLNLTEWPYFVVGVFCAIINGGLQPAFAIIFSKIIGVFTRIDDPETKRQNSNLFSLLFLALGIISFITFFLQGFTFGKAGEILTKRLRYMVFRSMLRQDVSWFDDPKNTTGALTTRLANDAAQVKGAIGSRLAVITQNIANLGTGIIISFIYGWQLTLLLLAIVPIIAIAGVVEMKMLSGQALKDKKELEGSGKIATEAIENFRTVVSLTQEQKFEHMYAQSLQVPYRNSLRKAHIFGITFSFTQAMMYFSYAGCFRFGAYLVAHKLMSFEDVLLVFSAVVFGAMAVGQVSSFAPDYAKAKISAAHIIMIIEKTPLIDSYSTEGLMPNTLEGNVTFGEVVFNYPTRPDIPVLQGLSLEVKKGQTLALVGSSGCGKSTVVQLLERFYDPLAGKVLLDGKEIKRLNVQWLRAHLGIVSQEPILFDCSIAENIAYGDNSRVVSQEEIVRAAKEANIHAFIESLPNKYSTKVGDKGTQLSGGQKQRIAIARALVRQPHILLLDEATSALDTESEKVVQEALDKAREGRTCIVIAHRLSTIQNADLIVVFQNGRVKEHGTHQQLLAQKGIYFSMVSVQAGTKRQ
T2 sequence (P08183 whole entry): as above

Turning to `CC(O)C1(O)CCC2(O)C3CCC4CC(O)CCC4(C)C3CC(OC(=O)C=Cc3ccccc3)C12C` [Compound 1, 3β,12β,14β,17β,20(S)-pentahydroxy-5α-pregnan-12β-O-(E)-cinnamate], the “Expression of caspase 9” value in series [1] (setting [10]) is given as “significantly upregulated”. Besides, the “Expression of caspase 9” value in series [1] (setting [11]) was “did not change”. Also, in series [2], the “Cytotoxicity to HepG2/Dox cells (viability)” value is listed as “non-cytotoxic”; the “Reversal of resistance of HepG2/Dox cells to paclitaxel and vinblastine” value is “completely reversed”. Moreover, in series [2] (doxorubicin + modulator 5 µM), the Fres to doxorubicin came out at 13.7 and the Fsen to doxorubicin was 2.6. In [2] (doxorubicin + modulator 10 µM), the Fres to doxorubicin came out at 5.0 and the “Fsen to doxorubicin (reversal fold)” value is on record as 7.1. Also, in series [2] (paclitaxel + modulator 5 µM), the Fres to paclitaxel worked out at 3.9 and the Fsen to paclitaxel stood at 33.6. For the same molecule, in series [2] (paclitaxel + modulator 10 µM), the Fres to paclitaxel is 1.1 and the “Fsen to paclitaxel (reversal fold)” value came to 118.5. For the same molecule, in series [2] (vinblastine + modulator 5 µM), the Fres to vinblastine was found to be 1.5 and the Fsen to vinblastine was 91.5. In series [2] (vinblastine + modulator 10 µM), the Fres to vinblastine was determined as 0.7 and the “Fsen to vinblastine (reversal fold)” value amounted to 198.3. Further, in series [3], the “Ka (association rate constant)” value was 65800 M⁻¹ s⁻¹, the “Kd (dissociation rate constant)” value worked out at 0.364 s⁻¹ and the Kd was 5.53 µM. Moreover, in series [3] (listed as compound 1), the “Ka (association rate constant)” value is reported as > 10^4 M^−1s^−1 and the “Kd (dissociation rate constant)” value is > 10^−1 s^−1. For the same molecule, the “Fluorescence intensity of Rh-123 in cells (inhibited efflux)” value in series [4] is recorded as “significantly increased”. Moreover, the “Apoptosis rates of HepG2/Dox cells” value in series [5] is “significantly increased”. Also, the “Expression of caspase 8” value in [6] (setting [10]) is reported as “did not change”. Moreover, in series [6] (setting [11]), the “Expression of caspase 8” value is “did not change”. Moreover, in series [7], the basolateral-to-apical permeability (Papp B→A) at 2 h turned out to be 7.71 ± 0.61 ×10⁻⁶ cm/s; the apical-to-basolateral permeability (Papp A→B) at 2 h, 2 μM is 9.28 ×10⁻⁶ cm/s; the Papp A→B at 2 h came out at 9.28 ± 0.88 ×10⁻⁶ cm/s. Moreover, the recovery at 2 h in series [7] (setting [12]) was 44.6 ± 2.3%. The molecule further displayed a recovery at 2 h in series [7] (setting [13]) of 50.4 ± 1.7%. In addition, the P-gp substrate status entry in [8] is reported as “not P-gp substrates”. Moreover, the “Expression level of cellular P-gp” value in series [9] is reported as “did not influence”.
`CC(O)C1(O)CCC2(O)C3CCC4CC(OC(=O)c5cccnc5)CCC4(C)C3CC(OC(=O)C=Cc3ccccc3)C12C` [Compound 1a, 3β,12β,14β,17β,20(S)-pentahydroxy-5α-pregnan-3β-O-nicotinate-12β-O-(E)-cinnamate]: the “Expression of caspase 9” value in [1] (setting [10]) is “significantly upregulated”. Also, in series [1] (setting [11]), the “Expression of caspase 9” value is “did not change”. In addition, in series [2], the “Cytotoxicity to HepG2/Dox cells (viability)” value is recorded as “non-cytotoxic”; the “Reversal of resistance of HepG2/Dox cells to paclitaxel and vinblastine” value is on record as “completely reversed”. In [2] (doxorubicin + modulator 5 µM), the Fres to doxorubicin amounted to 1.9 and the Fsen to doxorubicin is listed as 18.8. For the same molecule, in series [2] (doxorubicin + modulator 10 µM), the Fres to doxorubicin is 4.1 and the “Fsen to doxorubicin (reversal fold)” value is 18.8. In addition, the “Fsen to doxorubicin (reversal fold)” value in [2] (doxorubicin + modulator 10 µM, listed as compound 1a) worked out at 8.6. For the same molecule, in series [2] (paclitaxel + modulator 5 µM), the Fres to paclitaxel worked out at 0.8 and the Fsen to paclitaxel worked out at 155.0. In series [2] (paclitaxel + modulator 10 µM), the Fres to paclitaxel was determined as 0.4 and the “Fsen to paclitaxel (reversal fold)” value stood at 335.8. Also, in series [2] (vinblastine + modulator 5 µM), the Fres to vinblastine was 1.8 and the Fsen to vinblastine worked out at 79.3. For the same molecule, in series [2] (vinblastine + modulator 10 µM), the Fres to vinblastine was 1.0 and the “Fsen to vinblastine (reversal fold)” value was 140. In series [3], the “Ka (association rate constant)” value turned out to be 41600 M⁻¹ s⁻¹, the “Kd (dissociation rate constant)” value was determined as 0.155 s⁻¹ and the Kd turned out to be 3.72 µM. For the same molecule, the “Ka (association rate constant)” value in [3] (listed as compound 1a) is > 10^4 M^−1s^−1. Also, in series [3] (read-out: Kd (dissociation rate constant)), the koff was greater than 0.1 s⁻¹. Further, the “Fluorescence intensity of Rh-123 in cells (inhibited efflux)” value in series [4] is “significantly increased”. Besides, the “Apoptosis rates of HepG2/Dox cells” value in [5] is given as “significantly increased”. Further, the “Expression of caspase 8” value in series [6] (setting [10]) was “did not change”. Also, the “Expression of caspase 8” value in series [6] (setting [11]) is given as “did not change”. In addition, in series [7], the Papp B→A at 2 h came to 0.24 ± 0.02 ×10⁻⁶ cm/s; the apparent permeability from apical to basolateral (Papp A→B) at 2 h, 2 μM is 0.27 ×10⁻⁶ cm/s; the apical-to-basolateral permeability (Papp A→B) at 2 h stood at 0.27 ± 0.03 ×10⁻⁶ cm/s. This molecule yielded a recovery at 2 h in series [7] (setting [12]) of 5.3 ± 0.5%. Besides, the recovery at 2 h in series [7] (setting [13]) turned out to be 12.2 ± 0.7%. The P-gp substrate status result in series [8] was “not P-gp substrates”. In addition, the “Expression level of cellular P-gp” value in series [9] is “did not influence”.
Consider `C[C@H]1O[C@@H](O[C@H]2[C@@H](O)C[C@H](O[C@H]3[C@@H](O)C[C@H](O[C@H]4CC[C@@]5(C)[C@H](CC[C@@H]6[C@@H]5C[C@@H](O)[C@]5(C)[C@@H](C7=CC(=O)OC7)CC[C@]65O)C4)O[C@@H]3C)O[C@@H]2C)C[C@H](O)[C@@H]1O` [Digoxin, reference compound], for which, in [7], the Papp B→A at 2 h was determined as 22.3 ± 1.02 ×10⁻⁶ cm/s and the Papp A→B at 2 h came out at 0.12 ± 0.02 ×10⁻⁶ cm/s. Moreover, in series [7] (setting [12]), the recovery at 2 h is 97.9 ± 8.1%. The same molecule registered a recovery at 2 h in [7] (setting [13]) of 94.4 ± 1.9%.
With `COc1cccc2c1C(=O)c1c(O)c3c(c(O)c1C2=O)C[C@@](O)(C(=O)CO)C[C@@H]3O[C@H]1C[C@H](N)[C@H](O)[C@H](C)O1` [Doxorubicin, reference compound], in series [2], the IC50 was 6.03 ± 1.15 µM, the “Fsen (fold increase in sensitivity)” value amounted to 1 and the “Fres (fold of resistance)” value came out at 35.5.
As to `CC(=O)O[C@H]1C(=O)[C@@]2(C)[C@H]([C@H](OC(=O)c3ccccc3)[C@]3(O)C[C@H](OC(=O)[C@H](O)[C@@H](NC(=O)c4ccccc4)c4ccccc4)C(C)=C1C3(C)C)[C@]1(OC(C)=O)CO[C@@H]1C[C@@H]2O` [Paclitaxel, reference compound], the “Expression of caspase 9” value in series [1] (setting [11]) was “did not change”. In addition, the IC50 in [2] stood at 4.03 ± 0.06 µM. The “Cell apoptosis in HepG2/Dox cells” value in series [5] (500 nM alone) is recorded as “did not induce cell apoptosis”. The “Expression of caspase 8” value in series [6] (setting [11]) is listed as “did not change”.
Turning to `COc1ccc(CCN(C)CCCC(C#N)(c2ccc(OC)c(OC)c2)C(C)C)cc1OC` (stereo not drawn) [VRP, Verapamil, reference compound], the Fres to doxorubicin in series [2] (doxorubicin + modulator 10 µM) is given as 1.1. The Fres to paclitaxel in series [2] (paclitaxel + modulator 10 µM) is on record as 1.3. Also, the Fres to vinblastine in series [2] (vinblastine + modulator 10 µM) is 2.1. For the same molecule, the “Apoptosis rates of HepG2/Dox cells” value in [5] was “significantly increased”.
Regarding `CC[C@]1(O)C[C@@H]2CN(CCc3c([nH]c4ccccc34)[C@@](C(=O)OC)(c3cc4c(cc3OC)N(C)[C@H]3[C@@](O)(C(=O)OC)[C@H](OC(C)=O)[C@]5(CC)C=CCN6CC[C@]43[C@@H]65)C2)C1` [Vinblastine, reference compound], in series [2], the IC50 worked out at 2.38 ± 0.62 µM, the “Fsen (fold increase in sensitivity)” value turned out to be 1 and the “Fres (fold of resistance)” value stood at 140.0. Further, the “Fres (fold of resistance)” value in series [2] (listed as vinblastine) came out at 140.
